# Source: patent US8552208B2, “Analogs of tetramic acid” (University of Tennesseee Research Foundation, priority 2007, dated 2013)
# Read-outs that look alike come from different tables or passages of the source.
# Columns and labels:
# [1] = system: MRSA (ATCC 35391) biofilm; assay: Calgary Biofilm Device anti-biofilm activity; format: cell-based, Staphylococcus aureus; conditions: for MIC: read-out: MBIC = Minimum Biofilm Inhibitory Concentration
# [2] = system: MSSA (ATCC 25293) biofilm; assay: Calgary Biofilm Device anti-biofilm activity; format: cell-based; conditions: Staphylococcus aureus; for MBC: read-out: MBEC = Minimum Biofilm Eradication Concentration
# [3] = system: S. epidermidis (RP62A) biofilm; assay: Calgary Biofilm Device anti-biofilm activity; format: cell-based; conditions: Staphylococcus epidermidis; for MIC: read-out: MBIC = Minimum Biofilm Inhibitory Concentration
# [4] = system: Propionibacterium acnes ATCC 6919; assay: Antibacterial activity assay (MIC, broth dilution); format: cell-based; conditions: Cutibacterium acnes, ATCC6919; Propionibacterium acnes ATCC 6919; read-out: MIC, PA
# [5] = system: Enterococcus faecalis ATCC 33186; assay: Antibacterial activity assay (MIC, broth dilution); format: cell-based; conditions: ATCC33186; Enterococcus faecalis ATCC 33186; read-out: MIC, EF
# [6] = system: Streptococcus pneumoniae DAW30EC; assay: Antibacterial activity assay (MIC, broth dilution); format: cell-based; conditions: Streptococcus pneumoniae DAW30EC; read-out: MIC, SPn
# [7] = system: Streptococcus pyogenes ATCC 700294; assay: Antibacterial activity assay (MIC, broth dilution); format: cell-based; conditions: ATCC700294; Streptococcus pyogenes ATCC 700294; read-out: MIC, SP
# [8] = system: clinical isolates of MRSA (methicillin resistant S. aureus); format: cell-based
# [9] = system: Bacillus anthracis Sterne 34F2; assay: microbe, parasite or virus in culture; format: cell-based; conditions: STERNE34F2, read-out: MIC, BA
# [10] = system: Mycobacterium tuberculosis H37 Rv; assay: Antibacterial activity assay (MIC, broth dilution); format: cell-based; conditions: H37RV, 168 h; Mycobacterium tuberculosis H37 Rv; […]; read-out: MIC, TB
# [11] = system: Methicillin Resistant Staphylococcus aureus ATCC 33591; assay: Antibacterial activity assay (MIC, broth dilution); format: cell-based; conditions: ATCC 33591 / MRSA, read-out: MIC, MRSA
# [12] = system: clinical isolates of MSSA (methicillin sensitive S. aureus); format: cell-based
# [13] = system: Bacillus subtilis ATCC 23857; assay: Antibacterial activity assay (MIC, broth dilution); format: cell-based; conditions: ATCC23857; Bacillus subtilis ATCC 23857; read-out: MIC, BS
# [14] = system: Methicillin sensitive Staphylococcus aureus 8325 ATCC 35556; assay: Antibacterial activity assay (MIC, broth dilution); format: cell-based; conditions: ATCC 35556 / MSSA; Methicillin sensitive Staphylococcus aureus 8325 ATCC 35556; read-out: MIC, MSSA
# [15] = system: Vero monkey kidney cell line (ATCC, CCL-81); assay: Cytotoxicity assay (MTT); format: cell-based; conditions: IC50 divided by MIC against S. aureus 8325
# Procedure: (§1) Cytotoxicity assays of drugs of Formula I of Example 3 and of Formula II of Example 5 were performed using the Vero monkey kidney cell line (ATCC, CCL-81). Vero cells were grown in tissue culture flasks in Dulbecco's Modified Eagle's Medium (ATCC) supplemented with 10% fetal bovine serum and maintained in a humidified incubator (37° C., 5% CO2). Cells were removed with a cell scraper, collected by centrifugation and then suspended in fresh medium at ˜10^6 cells/mL. The cell suspensions were dispensed into 96-well microtiter plates (100 μl/well) and incubated for 18 hours at 37° C. before being used for cytotoxicity assays. Test compounds were subsequently added at concentrations ranging from 400-0.024 μg/mL and 0.1% vol/vol of Triton-X 100, which causes 100% death of cells, was included as a control. After incubating cells and compounds for 72 hours in humid air (37° C., 5% CO2) the cytopathic effects of compounds were determined using the MTT Cell Proliferation Assay (ATCC, Cat No. 30-1010K). The MTT solution reagent (10 μl) was added to each well and plates incubated at 37° C. until sufficient purple color development occurred in cells (3 hours). After detergent cell lysis, the purple formazan product was measured at 570 nm in a Synergy HT Biotek microplate reader. IC50 data was obtained from dose response curves plotted from percentage activity versus log10 concentration using Graphpad prism 5.
# [16] = Cytotoxicity assay (MTT); format: cell-based, monkey; conditions: monkey, Vero cells, 72 hours, MTT, read-out: IC50 (Cytotoxicity): Concentration which reduces viability of Vero kidney cells by 50%
# Procedure: as §1
# [17] = Vero monkey kidney cells (ATCC CCL-81)
structure (smiles),measurement,setting,value
"CO[C@H]1/C=C/O[C@@]2(C)Oc3c(C)c(O)c4c(O)c(c(/C=N/N5CCN(C)CC5)c(O)c4c3C2=O)NC(=O)/C(C)=C\C=C\[C@H](C)[C@H](O)[C@@H](C)[C@@H](O)[C@@H](C)[C@H](OC(C)=O)[C@@H]1C [Rifampicin, rifampicin, reference compound]",MBIC = Minimum Biofilm Inhibitory Concentration,"[1]; MRSA biofilm, triplicate runs listed singly",<0.2 µg/mL
same,MIC,"[1]; Staphylococcus aureus, MRSA biofilm, triplicate runs listed singly",< 0.2 µg/mL
same,MBC,"[2]; MSSA biofilm, triplicate runs listed singly",100 µg/mL
same,MIC,"[2]; MSSA biofilm, triplicate runs listed singly, read-out: MBIC = Minimum Biofilm Inhibitory Concentration",0.4 µg/mL
same,MIC,"[3]; S. epidermidis biofilm, triplicate runs listed singly",< 0.2 µg/mL
"CCCCN1C(=O)/C(=C(/C)O)C(=O)[C@@H]1CC(C)C [Compound 13j, (S,Z)-1-butyl-3-(1-hydroxyethylidene)-5-isobutylpyrrolidine-2,4-dione]",MIC,[4],0.8 µg/mL
same,MIC,[5],1.6 µg/mL
same,MIC,[6],100 µg/mL
same,MIC,[7],> 200 µg/mL
same,Antibiotic MIC,[8]; isolate MRSA-1,50 µg/mL
same,Antibiotic MIC,[8]; isolate MRSA-2,25 µg/mL
same,Antibiotic MIC,[8]; isolate MRSA-3,25 µg/mL
same,Antibiotic MIC,[8]; isolate MRSA-4,25 µg/mL
same,Antibiotic MIC,[8]; isolate MRSA-5,25 µg/mL
same,Antibiotic MIC,[8]; isolate MRSA-6,25 µg/mL
same,Antibiotic MIC,[8]; isolate MRSA-7,50 µg/mL
same,Antibiotic MIC,[8]; isolate MRSA-9,6.25 µg/mL
same,Antibiotic MIC,[8]; isolate MRSA-10,50 µg/mL
same,MIC,[9],12.5 µg/mL
same,MIC,[10],100 µg/mL
same,MIC,[11],6.25 µg/mL
same,Antibiotic MIC,[12]; isolate MSSA-11,12.5 µg/mL
same,Antibiotic MIC,[12]; isolate MSSA-12,6.25 µg/mL
same,Antibiotic MIC,[12]; isolate MSSA-13,12.5 µg/mL
same,Antibiotic MIC,[12]; isolate MSSA-14,25 µg/mL
same,Antibiotic MIC,[12]; isolate MSSA-15,3.12 µg/mL
same,Antibiotic MIC,[12]; isolate MSSA-16,6.25 µg/mL
same,Antibiotic MIC,[12]; isolate MSSA-17,6.25 µg/mL
same,Antibiotic MIC,[12]; isolate MSSA-18,6.25 µg/mL
same,Antibiotic MIC,[12]; isolate MSSA-19,3.12 µg/mL
same,Antibiotic MIC,[12]; isolate MSSA-20,25 µg/mL
same,MIC,[13],6.25 µg/mL
same,MIC,[14],3.12 µg/mL
same,IC50/MIC = Selectivity (therapeutic) index,[15],81.4
same,IC50 at 72 h,[16],254 µg/mL
"CCCCCCCCCCN1C(=O)/C(=C(/C)O)C(=O)[C@@H]1Cc1ccccc1 [Compound 13n, (S,Z)-5-benzyl-1-decyl-3-(1-hydroxyethylidene)pyrrolidine-2,4-dione]",MIC,[4],0.4 µg/mL
same,MIC,[5],0.8 µg/mL
same,MIC,[6],12.5 µg/mL
same,MIC,[7],50 µg/mL
same,Antibiotic MIC,[8]; isolate MRSA-1,1.6 µg/mL
same,Antibiotic MIC,[8]; isolate MRSA-2,1.6 µg/mL
same,Antibiotic MIC,[8]; isolate MRSA-3,1.6 µg/mL
same,Antibiotic MIC,[8]; isolate MRSA-4,0.8 µg/mL
same,Antibiotic MIC,[8]; isolate MRSA-5,0.8 µg/mL
same,Antibiotic MIC,[8]; isolate MRSA-6,0.8 µg/mL
same,Antibiotic MIC,[8]; isolate MRSA-7,0.8 µg/mL
same,Antibiotic MIC,[8]; isolate MRSA-8,0.2 µg/mL
same,Antibiotic MIC,[8]; isolate MRSA-9,0.8 µg/mL
same,Antibiotic MIC,[8]; isolate MRSA-10,0.8 µg/mL
same,MIC,[9],0.2 µg/mL
same,MIC,[10],50 µg/mL
same,MIC,[11],0.8 µg/mL
same,Antibiotic MIC,[12]; isolate MSSA-11,0.8 µg/mL
same,Antibiotic MIC,[12]; isolate MSSA-12,0.8 µg/mL
same,Antibiotic MIC,[12]; isolate MSSA-13,0.8 µg/mL
same,Antibiotic MIC,[12]; isolate MSSA-14,1.6 µg/mL
same,Antibiotic MIC,[12]; isolate MSSA-15,0.2 µg/mL
same,Antibiotic MIC,[12]; isolate MSSA-16,0.8 µg/mL
same,Antibiotic MIC,[12]; isolate MSSA-17,0.8 µg/mL
same,Antibiotic MIC,[12]; isolate MSSA-18,0.8 µg/mL
same,Antibiotic MIC,[12]; isolate MSSA-19,0.4 µg/mL
same,Antibiotic MIC,[12]; isolate MSSA-20,0.8 µg/mL
same,MIC,[13],0.4 µg/mL
same,MIC,[14],0.2 µg/mL
same,IC50/MIC = Selectivity (therapeutic) index,[15],105.5
same,IC50 at 72 h,[16]; [17],21.1 µg/mL
"C/C(O)=C1\C(=O)[C@@H](CC(C)C)N(Cc2ccc(F)cc2)C1=O [Compound 13f, (R,Z)-1-(4-fluorobenzyl)-3-(1-hydroxyethylidene)-5-isobutylpyrrolidine-2,4-dione]",MIC,[4],12.5 µg/mL
same,MIC,[5],50 µg/mL
same,MIC,[6],25 µg/mL
same,MIC,[7],100 µg/mL
same,MIC,[9],12.5 µg/mL
same,MIC,[10],100 µg/mL
same,MIC,[11],12.5 µg/mL
same,MIC,[13],12.5 µg/mL
same,MIC,[14],12.5 µg/mL
same,IC50/MIC = Selectivity (therapeutic) index,[15],2.8
same,IC50 at 72 h,[16],35.3 µg/mL
"C/C(O)=C1\C(=O)[C@@H](Cc2ccccc2)N(Cc2ccccc2)C1=O [Compound 13g, (R,Z)-1,5-dibenzyl-3-(1-hydroxyethylidene)pyrrolidine-2,4-dione]",MIC,[4],25 µg/mL
same,MIC,[5],100 µg/mL
same,MIC,[6],50 µg/mL
same,MIC,[7],200 µg/mL
same,MIC,[9],25 µg/mL
same,MIC,[10],> 200 µg/mL
same,MIC,[11],25 µg/mL
same,MIC,[13],25 µg/mL
same,MIC,[14],25 µg/mL
same,IC50/MIC = Selectivity (therapeutic) index,[15],3.2
same,IC50 at 72 h,[16]; [17],80.6 µg/mL
"C/C(O)=C1\C(=O)[C@H](CC(C)C)N(Cc2ccc(F)cc2)C1=O [Compound 13e, (S,Z)-1-(4-fluorobenzyl)-3-(1-hydroxyethylidene)-5-isobutylpyrrolidine-2,4-dione]",MIC,[4],6.25 µg/mL
same,MIC,[5],50 µg/mL
same,MIC,[6],50 µg/mL
same,MIC,[7],100 µg/mL
same,MIC,[9],12.5 µg/mL
same,MIC,[10],100 µg/mL
same,MIC,[11],25 µg/mL
same,MIC,[13],25 µg/mL
same,MIC,[14],12.5 µg/mL
same,IC50/MIC = Selectivity (therapeutic) index,[15],2.2
same,IC50 at 72 h,[16],27.8 µg/mL
"CN[C@H](CC(C)C)C(=O)N[C@H]1C(=O)N[C@@H](CC(N)=O)C(=O)N[C@H]2C(=O)N[C@H]3C(=O)N[C@H](C(=O)N[C@H](C(=O)O)c4cc(O)cc(O)c4-c4cc3ccc4O)[C@H](O)c3ccc(c(Cl)c3)Oc3cc2cc(c3O[C@@H]2O[C@H](CO)[C@@H](O)[C@H](O)[C@H]2O[C@H]2C[C@](C)(N)[C@H](O)[C@H](C)O2)Oc2ccc(cc2Cl)[C@H]1O [Vancomycin, vancomycin, reference compound]",MBC,"[1]; Staphylococcus aureus, read-out: MBEC = Minimum Biofilm Eradication Concentration",> 400 µg/mL
same,MIC,[1]; Staphylococcus aureus,1.6 µg/mL
same,MBC,[2],> 400 µg/mL
same,MBC,[3]; read-out: MBEC = Minimum Biofilm Eradication Concentration,> 400 µg/mL
same,MIC,[3],12.5 µg/mL
